Source: patent publication US12173317B2, “Use of histone modifiers to reprogram effector T cells” (Board of Regents, The University of Texas System, priority 2018, dated 2024)
Entries after “also recorded” stand apart in the source; their conditions may differ.

Legend:
[1] = tested on: tumor antigen-specific CTL lines; test: REP and mini-REP expansion fold of CTLs; format: cell-based, human; details: 2 weeks
Method: The TILs were cultured from patient melanoma tumors. […] After 14 days, cells were used for further analyses. For studies with SAHA (FIG. 2), SAHA was used at […].
Mini-REP was started scaling down from T25 flasks to 24-well plates accordingly. IL-21 and Panobinostat dose remained unchanged.
To examine the clinical applicability of Panobinostat (Pano) in the setting of antigen-specific ACT, MART1 (M27)-specific effector/effector memory cells generated via the ETC approach were used and expanded in vitro by REP, as previously described (Yee, 2014). Cells were expanded with four different protocols (regular, adding IL-21 alone, adding Pano alone, or IL-21+Pano). […] It was posited that Panobinostat, like SAHA, enabled STAT3 and other transcription factors/cofactors to access binding sites and induce CD28 and CD62L expression.
The TILs were cultured from patient melanoma tumors. […] After 14 days, cells were used for further analyses.

[2] = tested on: STAT5; test: Western blot of pSTAT5; format: cell-based, human; details: naïve CD8+ T cells, anti-CD3/CD28 beads, 30 minutes after activation
Method: (§1) Polyclonal stimulation of CD8^+ T cells: Naïve CD8^+ T cells (CD8^+CD45RA^+CCR7^+) were flow cytometry-sorted or were isolated using EasySep™ Human Naïve CD8^+ T Cell Enrichment Kit (StemCell). In some experiments, total CD8^+ T cells were negatively selected using EasySep™ Human CD8^+ T Cell Enrichment Kit (StemCell). The purity of the naïve or total CD8^+ T cells was greater than 95% as determined by flow cytometry. CD8^+ T cells were cultured in RPMI 1640 with 10% fetal bovine serum and penicillin/streptomycin. CD8^+ T cells were activated using Dynabeads® Human T-Activator CD3/CD28 for T-Cell Expansion and Activation (Life Technologies) at a bead:cell ratio of 1:1 or together with 30 ng/mL human IL-21 (Peprotech). At the indicated time points, T cells were harvested and beads were removed using a magnet before downstream analysis.
(§2) Western Blot analysis: Equal number of cells was lysed in 2×SDS loading buffer and loaded for immunoblot analysis with different antibodies (Cell Signaling). Anti-β-actin-HRP was from Santa Cruz Biotech. β-actin was used as the loading control for all immunoblot experiments. The results were quantified using ImageJ and normalized to the density of actin in the corresponding samples.

[3] = tested on: M27-specific CTLs; test: CD28 expression in M27-specific CTLs generated with IL-21; format: cell-based, human
Source text: (§3) IL-21 upregulates CD28 expression on activated human naïve CD8^+ T cells: CD28 is a pivotal costimulatory molecule for naïve T cell activation and memory T cell function. […] To investigate the molecular mechanisms of IL-21-induced CD28 expression, melanoma antigen recognized by T cells (MART1, M27)-specific CTLs were generated in the absence or presence of IL-21 as previously described (Li et al., 2005). […] To further corroborate the findings, sort-purified naïve human CD8^+ T cells (CD45RA^+CCR7^+) from healthy donors were activated with anti-CD3/CD28 beads in the absence or presence of IL-21 and surface CD28 expression was detected by flow cytometry.
(§4) Flow Cytometry: Cells were stained with antibodies against CD8, CD28, CD62L or CD132. All FACS data were acquired via an LSR II flow cytometer and analyzed via FlowJo software (Tree Star, Inc.).
Quantitative real-dime PCR: Total RNA was prepared using Qiagen RNA purification kit. cDNA. was made using Superscript reverse transcriptase and oligo(dT) primers (Life Technology), and gene expression was detected with a Bio-Rad iCycler Optical System using iQ SYBR green real-time PCR kit (Bio-Rad Laboratories, Inc.). The data were normalized to the reference gene RPL13A. RPL13A primer was purchased from Qiagen. Other primer pairs used were: CD28 forward: […] (SEQ ID NO:2), reverse: […] (SEQ ID NO: 3); CD62L forward: […] […]

[4] = tested on: MART1 (M27)-specific effector CD8+ T cells; test: CD28 level on M27-specific effector CD8+ T cells by flow cytometry; format: cell-based, human; details: activation with M27-pulsed mature dendritic cells, 4 days
Method: The present studies were performed to develop a method to reprogram or de-differentiate effector T cells that express CD45RO to central memory T cells that express CD62L and CD28 (FIG. 8). The effect of IL-21 and histone deacetylase inhibitor (HDACi) treatment on central memory markers CD28 and CD62L was evaluated. MART1 (M27)-specific effector CD8^+ T cells were untreated or pretreated with SAHA for 24 hours, followed by activation with M27-pulsed mature dendritic cells in the presence or absence of SAHA/IL-21 for 4 days.
as §4
To assess the effect of SAHA/IL-21 on CD28 expression in the context of a more physiologic, antigen-specific (in contrast to non-specific polyclonal) stimulation, this effect was evaluated on MART1 (M27)-specific effector/effector memory cells generated using peptide-pulsed autologous dendritic cells. MART1 (M27)-specific effector CD8^+ T cells (CD45RO^+, CD28-neg, CD62L-neg) were generated following iterative cycles of in vitro stimulation, tetramer-guided sorting of M27-specific CTL and expansion to uniformity (>95% MART-1-specific effector CTL). First, the effect of SAHA was evaluated on pSTAT3 binding to the CD28 promoter region. […]

[5] = tested on: expanded CTLs; test: CFSE proliferation of expanded CTLs with IL-2 or IL-15; format: cell-based, human; details: 2 days
Method: (§5) The expanded TILs/CTLs were also stained with antibodies against CD8 and CD132 and analyzed using the CD8^+ gate. […] In addition, the expanded CTLs were labeled with carboxyfluorescein succinimidyl ester (CFSE) and cultured with IL-2 or IL-15 for 2 days to check cell division. […] (FIG. 4B).
Central memory function associated with the IL-21/Pano-induced CD28^+CD62L^+ population was evaluated by the ability of these central memory-like T cells to undergo homeostatic proliferation in response to IL-7 and IL-15. ETC cells expanded with four different protocols (regular, adding IL-21 alone, adding Pano alone, or IL-21+Pano) were labeled with CFSE and cultured with IL-2, IL-7 or IL-15 for 2 days. […] Adding Panobinostat alone to REP increased cell proliferation in response to IL-15 but not to IL-2. […] Since IL-2 and IL-15 share CD132 (γC) and CD122 receptor subunits, CD132 and CD122 levels were assessed on the surface of these cells.

[6] = tested on: STAT3; test: Western blot of IL-21-induced pSTAT3; format: cell-based, human
Method: as §1, §2

[7] = tested on: target tumor cells; test: Chromium release assay (CRA); format: cell-based; details: effector:tumor 20:1, 4 hours, compared with regular expansion
Method: Chromium Release Assay (CRA): Tumor cells were labeled with Cr51 before being incubated with antigen-specific CTLs at effector:tumor of 20:1 for 4 hours. The Cr51 amount in the supernatants was measured and the killing efficiency was calculated as % killing=100%×(sample average−average of negative control)/([…]).
Chromium Release Assay (CRA): Tumor cells were labeled with Cr51 before being incubated with antigen-specific CTLs at effector:tumor of 20:1 for 4 hours. The Cr51 amount in the supernatants was measured and the killing efficiency was calculated as % killing=100%×(sample average−average of negative control)/(average of positive control−average of negative control).

[8] = tested on: CD28 promoter; test: Chromatin immunoprecipitation (ChIP) on the CD28 promoter; format: cell-based, human
Method: Chromatin immunoprecipitation (ChIP): ChIP was performed using a ChIP Assay Kit according to the manufacturer's instructions (Millipore). Quantitative real-time PCR was performed with primers: CD28 promoter proximal STAT sites: forward […] (SEQ ID NO:10), reverse […] (SEQ ID NO: 11); distal STAT sites: forward […] (SEQ ID NO: 12), reverse […] (SEQ ID NO: 13); Rabbit IgG was used as a negative control.

[9] = tested on: human CD8+ T cells; test: CD28 expression in polyclonally activated human CD8+ T cells; format: cell-based
Source text: as §3, §1, §4
Quantitative real-dime PCR: Total RNA was prepared using Qiagen RNA purification kit. cDNA. was made using Superscript reverse transcriptase and oligo(dT) primers (Life Technology), and gene expression was detected with a Bio-Rad iCycler Optical System using iQ SYBR green real-time PCR kit (Bio-Rad Laboratories, Inc.). The data were normalized to the reference gene RPL13A. RPL13A primer was purchased from Qiagen. Other primer pairs used were: CD28 forward: […] (SEQ ID NO:2), reverse: […] (SEQ ID NO: 3); CD62L forward: […] (SEQ ID NO: 4), reverse: […] (SEQ ID NO: 5); Additional primers included lymphoid enhancer-binding factor 1 (LEFI) forward: […] (SEQ ID NO: 6), reverse: […] (SEQ ID NO: 7); transcription factor 1 (TCF1) forward: […] (SEQ ID NO: 8), reverse: CCTCGACCGCCTCTTCTTC (SEQ ID NO: 9).
Human shRNA Knockdown: Total CD8^+ T cells were isolated and transfected with 5 μg negative control, STAT1 shRNA, or STAT3 shRNA (Dharmacon) using Amaxa human T cell Nucleofector Kit according to the manufacturer's instructions (Lonza). Transfected cells were rested for 1-2 days and live GFP^+ cells were sort-purified for immunoblot analysis or were stimulated for 7 days as previously described before further analysis.

[10] = tested on: tumor antigen-specific CTL cells; test: Intracellular staining of IFN-γ and granzyme B; format: cell-based, human; details: restimulated with tumor cells
Method: Intracellular Staining: The cells were restimulated with tumor cells for 16 hours and stained with antibody against CD8, followed by fixation and staining with antibodies against IFN-γ and granzyme B in permeabilization buffer. The cells were washed and resuspended in FACS buffer before analysis.

[11] = tested on: STAT1; test: Western blot of pSTAT1; format: cell-based, human; details: naïve CD8+ T cells, anti-CD3/CD28 beads, 30 minutes after activation
Method: as §1, §2

[12] = tested on: CD132 (γC); test: CD132 surface level on expanded CTLs by flow cytometry; format: cell-based, human; details: CD8+ gate
Source text: as §5, §4

[13] = tested on: tumor infiltrating lymphocytes (TILs)
Method: The effect of IL-21 and Panobinostat in the clinical-relevant TIL expansion was assessed.
To examine the possible de-differentiating effect of an HDAC inhibitor/IL-21 combination, TILs were untreated or pretreated with SAHA for 24 hours, then subjected to regular REP (irradiated PBMC and LCL cells, anti-CD3 and IL-2), or REP with SAHA/IL-21.
The TILs were cultured from patient melanoma tumors. […] For studies with SAHA, SAHA was used at 1-5 μM.
TILs were cultured in 50% AIM-V, 50% TIL complete medium which contains RPMI1640, 10% human AB serum, 10 mM HEPES, and 2-Mercaptoethanol. […] IL-21 (30 ng/ml) or HDACi SAHA (1-5 μM) or Panobinostat (1-3 nM) was added on day 0, 4 and 7 if included in the expansion. After 14 days, expanded cells were subjected to further analyses.

[14] = tested on: histone H3 acetylation (AcH3); test: Western blot of H3 acetylation (AcH3) level; format: cell-based, human
Source text: as §2

Compound: IL-21: Human Interleukin 21, protein cytokine of 162 amino acids (SEQ ID NO:1)
- yield of cell expansion ([1]; mini-REP): dramatically increased
- expansion yield / expansion fold ([1]; regular REP): similar
- STAT5 phosphorylation [2]: weak
- CD28 mRNA level [3]: greatly augmented
- CD28 expression ([3]; compared with cells generated in the absence of IL-21): significantly higher
- CD28 expression [4]: slightly increased; also recorded: not observed
- proliferation in response to IL-2 [5]: enhanced
- proliferation in response to IL-15 [5]: enhanced
- IL-21-induced STAT3 phosphorylation levels, naïve compared with effector CD8+ T-cells [6]: comparable
- STAT3 phosphorylation ([6]; effector CD8+ T cells): induced STAT3 phosphorylation
- STAT3 phosphorylation ([6]; naïve CD8+ T cells, anti-CD3/CD28 beads, 30 minutes after activation): strong
- tumor cell killing [7]: enhanced
- enrichment of STAT3 at proximal and distal CD28 promoter regions ([8]; anti-CD3/CD28 and IL-21 relative to anti-CD3/CD28 alone): 2-3 fold
- IL-21-mediated enhancement of CD28 expression ([9]; CD8+ T cells from Job's syndrome patients): completely abrogated
- IL-21-induced CD28 protein and mRNA upregulation diminished ([9]; STAT1 shRNA-transfected CD8+ T cells): not
- IL-21-induced CD28 protein and mRNA upregulation ([9]; STAT3 shRNA-transfected CD8+ T cells): diminished
- CD28 expression ([9]; activated TEMRA CD8+ T cells): minimally upregulated
- CD28 mRNA level ([9]; naïve CD8+ T cells, anti-CD3/CD28): greatly augmented
- CD28 surface level expression ([9]; naïve CD8+ T cells, anti-CD3/CD28 beads): significantly increased; also recorded: upregulates
- expression of CD28 at protein and mRNA levels ([9]; total CD8+ T cells from healthy donors): increased
- IFNγ and granzyme B expression [10]: augmented
- STAT1 phosphorylation [11]: strong
- CD132 (γ chain) surface expression [12]: upregulate; also recorded: significantly increased

Compound: Cc1[nH]c2ccccc2c1CCNCc1ccc(/C=C/C(=O)NO)cc1 [Panobinostat]
- cytotoxicity ([13]; screen of HDACi): minimal cytotoxicity
- Panobinostat dose that increased AcH3 level [14]: ≥ 0.5 nM

Compound: O=C(CCCCCCC(=O)Nc1ccccc1)NO [SAHA, Suberoylanilide Hydroxamic Acid]
- cell death in REP culture [13]: caused dramatic cell death
- viable cells at the end of REP [13]: few viable cells
- CD28 expression [4]: upregulated
- AcH3 level by western blot ([14]; H3 and β-actin as loading controls): dose-dependent increase; also recorded: increases H3 acetylation in a dose-dependent manner
- SAHA concentration that augmented AcH3 level ([14]; effector CD8+ T cells): ≥ 1 µM
- SAHA concentration that could augment AcH3 levels ([14]; titration study, effector CD8+ T cells): ≥ 1 µM
- AcH3 level on the CD28 promoter ([8]; M27-specific effector CD8+ T cells, SAHA 24 hours): significantly increased
- IL-21-induced STAT3 (pSTAT3) binding to the CD28 promoter ([8]; SAHA 24 hours, then IL-21 30 minutes): allowing IL-21-induced STAT3 to bind to the same DNA region; also recorded: increased; also recorded: allows IL-21-induced pSTAT3 to access the CD28 promoter
